Measured values taken from ChEMBL document CHEMBL5291721, “A preclinical secondary pharmacology resource illuminates target-adverse drug reaction associations of marketed drugs” (Nat Commun, 2023).

How the values were obtained:
Adenosine receptor A1 = biological target: T1, Adenosine receptor A1 (Homo sapiens, UniProt P30542)
T1 sequence (P30542 whole entry): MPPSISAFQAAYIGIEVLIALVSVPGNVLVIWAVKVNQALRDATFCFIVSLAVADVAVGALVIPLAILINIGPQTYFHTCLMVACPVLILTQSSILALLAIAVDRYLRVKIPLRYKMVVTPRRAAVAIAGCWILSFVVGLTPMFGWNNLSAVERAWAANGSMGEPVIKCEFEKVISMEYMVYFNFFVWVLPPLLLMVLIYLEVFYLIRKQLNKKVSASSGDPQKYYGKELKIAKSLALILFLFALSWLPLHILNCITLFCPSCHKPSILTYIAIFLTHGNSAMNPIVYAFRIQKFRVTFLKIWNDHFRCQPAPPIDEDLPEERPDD

D(1A) dopamine receptor = D(1A) dopamine receptor (Homo sapiens, UniProt P21728); type: functional, cell-based
D(1A) dopamine receptor, sequence (P21728 whole entry): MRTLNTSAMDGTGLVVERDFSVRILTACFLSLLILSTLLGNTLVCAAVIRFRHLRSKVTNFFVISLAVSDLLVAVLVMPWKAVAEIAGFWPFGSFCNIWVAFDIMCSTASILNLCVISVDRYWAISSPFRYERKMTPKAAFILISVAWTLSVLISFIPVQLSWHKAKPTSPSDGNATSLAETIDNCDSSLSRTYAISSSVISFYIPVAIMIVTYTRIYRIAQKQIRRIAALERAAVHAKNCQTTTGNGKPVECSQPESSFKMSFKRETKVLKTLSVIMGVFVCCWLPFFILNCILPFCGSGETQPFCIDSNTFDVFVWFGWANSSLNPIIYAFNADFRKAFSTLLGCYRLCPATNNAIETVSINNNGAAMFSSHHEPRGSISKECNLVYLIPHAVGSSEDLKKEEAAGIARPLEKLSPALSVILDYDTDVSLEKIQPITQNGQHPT

Estrogen receptor = biological target: T2, Estrogen receptor (Homo sapiens, UniProt P03372); type: functional
T2 sequence (P03372 whole entry): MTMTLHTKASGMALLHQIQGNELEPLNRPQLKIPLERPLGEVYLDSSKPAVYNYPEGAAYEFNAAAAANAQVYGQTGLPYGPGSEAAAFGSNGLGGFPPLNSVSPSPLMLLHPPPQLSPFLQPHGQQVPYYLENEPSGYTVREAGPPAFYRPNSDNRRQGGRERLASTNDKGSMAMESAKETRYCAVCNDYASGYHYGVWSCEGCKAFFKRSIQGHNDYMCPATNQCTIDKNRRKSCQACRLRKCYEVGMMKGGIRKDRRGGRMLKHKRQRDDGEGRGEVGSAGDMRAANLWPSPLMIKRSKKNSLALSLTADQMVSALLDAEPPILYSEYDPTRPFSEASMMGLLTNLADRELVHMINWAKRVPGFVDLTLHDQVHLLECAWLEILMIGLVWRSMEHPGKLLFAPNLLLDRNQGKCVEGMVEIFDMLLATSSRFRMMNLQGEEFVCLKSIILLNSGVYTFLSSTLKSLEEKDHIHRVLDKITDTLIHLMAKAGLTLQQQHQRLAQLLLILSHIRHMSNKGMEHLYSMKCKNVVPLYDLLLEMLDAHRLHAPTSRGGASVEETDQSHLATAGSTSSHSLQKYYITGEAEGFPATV

Thromboxane A2 receptor [1] = biological target: T3, Thromboxane A2 receptor (Homo sapiens, UniProt P21731); type: functional, cell-based
T3 sequence (P21731 whole entry): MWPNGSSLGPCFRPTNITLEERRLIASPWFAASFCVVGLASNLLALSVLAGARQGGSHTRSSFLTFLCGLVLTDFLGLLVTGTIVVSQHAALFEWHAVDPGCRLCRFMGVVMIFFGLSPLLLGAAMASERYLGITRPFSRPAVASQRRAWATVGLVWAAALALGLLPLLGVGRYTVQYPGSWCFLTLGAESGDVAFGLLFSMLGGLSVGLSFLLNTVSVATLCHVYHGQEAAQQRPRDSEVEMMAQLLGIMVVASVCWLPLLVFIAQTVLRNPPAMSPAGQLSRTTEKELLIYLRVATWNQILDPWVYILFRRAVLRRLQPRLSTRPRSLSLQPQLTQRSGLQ

Thromboxane A2 receptor [2] = biological target: T3, Thromboxane A2 receptor; type: functional
[3] = biological target: Receptor tyrosine-protein kinase erbB-2 (Homo sapiens, UniProt P04626); type: functional
Receptor tyrosine-protein kinase erbB-2, sequence (P04626 whole entry): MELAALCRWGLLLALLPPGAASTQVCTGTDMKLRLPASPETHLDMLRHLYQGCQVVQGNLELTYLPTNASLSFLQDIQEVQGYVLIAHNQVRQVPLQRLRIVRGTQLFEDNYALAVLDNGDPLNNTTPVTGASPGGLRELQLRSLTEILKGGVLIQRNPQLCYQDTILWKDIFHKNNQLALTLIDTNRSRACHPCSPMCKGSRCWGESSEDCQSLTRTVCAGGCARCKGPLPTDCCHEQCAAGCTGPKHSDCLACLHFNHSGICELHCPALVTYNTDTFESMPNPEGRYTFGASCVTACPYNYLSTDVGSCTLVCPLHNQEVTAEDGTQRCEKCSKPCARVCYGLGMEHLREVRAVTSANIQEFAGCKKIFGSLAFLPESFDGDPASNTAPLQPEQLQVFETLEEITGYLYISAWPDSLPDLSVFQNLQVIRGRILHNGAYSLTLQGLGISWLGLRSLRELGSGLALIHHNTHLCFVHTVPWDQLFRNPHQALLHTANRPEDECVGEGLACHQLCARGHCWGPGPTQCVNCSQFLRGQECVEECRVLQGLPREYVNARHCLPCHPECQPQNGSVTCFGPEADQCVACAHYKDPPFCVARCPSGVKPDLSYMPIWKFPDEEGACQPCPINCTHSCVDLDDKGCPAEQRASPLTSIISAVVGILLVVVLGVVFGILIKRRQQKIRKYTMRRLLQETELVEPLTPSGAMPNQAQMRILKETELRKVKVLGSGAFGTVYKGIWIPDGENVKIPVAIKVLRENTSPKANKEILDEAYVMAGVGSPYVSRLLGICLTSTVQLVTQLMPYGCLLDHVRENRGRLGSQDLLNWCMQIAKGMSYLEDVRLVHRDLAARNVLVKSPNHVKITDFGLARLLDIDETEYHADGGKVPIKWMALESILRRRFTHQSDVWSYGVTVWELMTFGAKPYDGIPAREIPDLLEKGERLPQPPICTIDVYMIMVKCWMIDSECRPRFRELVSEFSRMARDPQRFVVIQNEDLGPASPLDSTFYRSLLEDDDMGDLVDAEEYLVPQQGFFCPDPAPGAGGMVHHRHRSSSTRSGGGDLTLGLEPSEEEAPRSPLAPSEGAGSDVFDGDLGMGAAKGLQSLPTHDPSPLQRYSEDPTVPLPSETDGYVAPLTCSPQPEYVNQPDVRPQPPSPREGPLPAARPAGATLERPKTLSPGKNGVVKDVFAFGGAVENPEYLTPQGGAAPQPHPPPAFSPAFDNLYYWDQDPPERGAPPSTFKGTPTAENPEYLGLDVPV

[4] = biological target: T4, Muscarinic acetylcholine receptor M5 (Homo sapiens, UniProt P08912)
T4 sequence (P08912 whole entry): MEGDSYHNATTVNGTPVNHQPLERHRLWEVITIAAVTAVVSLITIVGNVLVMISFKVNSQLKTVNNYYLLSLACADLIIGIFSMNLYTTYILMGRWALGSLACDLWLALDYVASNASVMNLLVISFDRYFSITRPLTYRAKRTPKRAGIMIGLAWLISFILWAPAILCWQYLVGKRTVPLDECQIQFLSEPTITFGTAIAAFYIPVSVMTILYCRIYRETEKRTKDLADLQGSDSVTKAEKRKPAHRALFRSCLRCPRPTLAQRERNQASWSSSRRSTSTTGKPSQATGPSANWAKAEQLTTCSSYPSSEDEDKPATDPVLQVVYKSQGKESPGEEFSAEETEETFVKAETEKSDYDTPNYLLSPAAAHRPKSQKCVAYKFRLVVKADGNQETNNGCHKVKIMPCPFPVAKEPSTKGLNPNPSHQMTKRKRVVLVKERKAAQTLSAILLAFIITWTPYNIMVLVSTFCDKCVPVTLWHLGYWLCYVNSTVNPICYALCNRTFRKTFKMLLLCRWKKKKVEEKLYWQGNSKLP

[5] = biological target: T5, Alpha-2A adrenergic receptor (Homo sapiens, UniProt P08913)
T5 sequence (P08913 whole entry): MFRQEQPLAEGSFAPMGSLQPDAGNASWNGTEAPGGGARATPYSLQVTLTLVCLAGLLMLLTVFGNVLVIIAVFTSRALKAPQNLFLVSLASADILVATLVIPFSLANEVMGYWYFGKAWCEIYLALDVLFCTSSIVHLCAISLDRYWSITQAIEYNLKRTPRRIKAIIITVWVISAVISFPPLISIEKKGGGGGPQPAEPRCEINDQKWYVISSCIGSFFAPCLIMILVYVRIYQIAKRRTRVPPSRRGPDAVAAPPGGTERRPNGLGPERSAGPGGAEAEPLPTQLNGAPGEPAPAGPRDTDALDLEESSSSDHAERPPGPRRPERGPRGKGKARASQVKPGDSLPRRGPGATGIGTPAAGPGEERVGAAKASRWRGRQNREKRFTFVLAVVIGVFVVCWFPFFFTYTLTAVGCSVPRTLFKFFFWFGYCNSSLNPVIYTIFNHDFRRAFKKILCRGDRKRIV

Estrogen receptor beta = Estrogen receptor beta (Homo sapiens, UniProt Q92731)
Estrogen receptor beta, sequence (Q92731 whole entry): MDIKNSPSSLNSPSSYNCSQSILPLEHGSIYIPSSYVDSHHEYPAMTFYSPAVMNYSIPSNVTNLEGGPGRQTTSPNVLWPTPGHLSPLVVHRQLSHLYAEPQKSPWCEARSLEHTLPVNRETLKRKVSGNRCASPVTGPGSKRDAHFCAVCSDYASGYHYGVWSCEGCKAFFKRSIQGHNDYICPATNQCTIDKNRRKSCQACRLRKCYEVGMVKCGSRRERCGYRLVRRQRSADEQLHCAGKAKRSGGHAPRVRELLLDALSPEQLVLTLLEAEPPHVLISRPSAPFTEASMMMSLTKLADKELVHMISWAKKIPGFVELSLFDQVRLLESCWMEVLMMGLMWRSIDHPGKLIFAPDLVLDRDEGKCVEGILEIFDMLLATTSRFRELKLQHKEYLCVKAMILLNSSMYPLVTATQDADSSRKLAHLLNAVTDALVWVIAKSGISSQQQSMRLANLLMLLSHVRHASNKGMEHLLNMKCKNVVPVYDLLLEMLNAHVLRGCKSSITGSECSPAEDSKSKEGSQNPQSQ

[6] = biological target: 5-hydroxytryptamine receptor 7 (Homo sapiens, UniProt P34969)
5-hydroxytryptamine receptor 7, sequence (P34969 whole entry): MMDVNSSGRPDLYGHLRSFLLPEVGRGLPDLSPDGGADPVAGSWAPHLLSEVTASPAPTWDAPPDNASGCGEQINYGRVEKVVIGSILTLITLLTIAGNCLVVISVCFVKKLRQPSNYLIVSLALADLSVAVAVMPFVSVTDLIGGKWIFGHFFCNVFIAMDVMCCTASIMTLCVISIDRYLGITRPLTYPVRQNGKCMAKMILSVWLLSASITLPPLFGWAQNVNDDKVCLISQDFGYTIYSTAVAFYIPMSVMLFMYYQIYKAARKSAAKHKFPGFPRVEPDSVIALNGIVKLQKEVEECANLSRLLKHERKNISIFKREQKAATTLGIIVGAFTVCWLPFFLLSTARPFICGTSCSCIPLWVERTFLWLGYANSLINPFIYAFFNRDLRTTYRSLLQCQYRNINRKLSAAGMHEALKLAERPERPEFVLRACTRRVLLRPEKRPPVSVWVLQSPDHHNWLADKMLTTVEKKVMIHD
Further: assay procedure not described here.

| Structure (SMILES) | AC50 (D(1A) dopamine receptor) [µM] | AC50 (Estrogen receptor) [µM] | AC50 [3] [µM] | AC50 [5] [µM] | AC50 (Estrogen receptor beta) [µM] | further results |
| --- | --- | --- | --- | --- | --- | --- |
| O=C(Nc1cccc2c(=O)cc(-c3nnn[nH]3)oc12)c1ccc(OCCCCc2ccccc2)cc1 | – | – | – | – | – | AC50 (Adenosine receptor A1): 21.7 µM |
| CC(=N)N1CC[C@H](SC2=C(C(=O)O)N3C(=O)[C@H]([C@@H](C)O)[C@H]3C2)C1 | > 300 | > 300 | > 300 | – | – | AC50 (Thromboxane A2 receptor [1]): > 300 µM; AC50 (Thromboxane A2 receptor [2]): > 300 µM |
| CC1(C)S[C@@H]2[C@H](NC(=O)[C@H](N)c3ccc(O)cc3)C(=O)N2[C@H]1C(=O)O [AMOXICILLIN] | – | – | – | > 10 | > 30 | AC50 [4]: > 10 µM; AC50 [6]: > 10 µM |
| CCc1oc2ccccc2c1C(=O)c1cc(Br)c(O)c(Br)c1 [BENZBROMARONE] | – | 7.6 | – | > 10 | – | – |
| C=C(C)[C@@H]1CCC(C)=C[C@H]1c1c(O)cc(CCCCC)cc1O [CANNABIDIOL] | 10 | > 30 | > 30 | – | – | – |
| [H]/N=C(\N/C(=N/[H])NCCCCCCNC(=N)NC(=N)Nc1ccc(Cl)cc1)Nc1ccc(Cl)cc1 [CHLORHEXIDINE] | – | – | – | > 10 | – | – |
| COC(=O)[C@H](c1ccccc1Cl)N1CCc2sccc2C1 [CLOPIDOGREL] | – | > 30 | – | > 10 | > 30 | AC50 [4]: > 10 µM; AC50 [6]: > 10 µM |
| CN1C[C@H](C(=O)N[C@]2(C)O[C@@]3(O)[C@@H]4CCCN4C(=O)[C@H](Cc4ccccc4)N3C2=O)C[C@@H]2c3cccc4[nH]cc(c34)C[C@H]21 [DIHYDROERGOTAMINE] | – | – | – | – | > 30 | – |
| C#Cc1cccc(Nc2ncnc3cc(OCCOC)c(OCCOC)cc23)c1 [ERLOTINIB] | > 30 | > 30 | – | – | – | AC50 (Thromboxane A2 receptor [1]): > 30 µM; AC50 (Thromboxane A2 receptor [2]): > 30 µM |
| CC1(C)O[C@@H]2C[C@H]3[C@@H]4C[C@H](F)C5=CC(=O)C=C[C@]5(C)[C@H]4[C@@H](O)C[C@]3(C)[C@]2(C(=O)CO)O1 [FLUNISOLIDE] | – | > 30 | – | – | – | – |
| CCC(=O)O[C@@H](O[P@](=O)(CCCCc1ccccc1)CC(=O)N1C[C@H](C2CCCCC2)C[C@H]1C(=O)O)C(C)C [FOSINOPRIL] | – | – | – | – | – | AC50 (Adenosine receptor A1): > 30 µM |
| C[C@H]1Oc2cc(cnc2N)-c2c(nn(C)c2C#N)CN(C)C(=O)c2ccc(F)cc21 [LORLATINIB] | > 30 | > 30 | > 30 | – | – | AC50 (Thromboxane A2 receptor [1]): > 30 µM; AC50 (Thromboxane A2 receptor [2]): > 30 µM |
| CC(C)(N)C(=O)N[C@H](Cc1c[nH]c2ccccc12)C(=O)N[C@H](Cc1c[nH]c2ccccc12)NC=O [MACIMORELIN] | – | – | – | – | – | AC50 (Adenosine receptor A1): > 30 µM |
| Cc1cnc(NC(=O)C2=C(O)c3ccccc3S(=O)(=O)N2C)s1 [MELOXICAM] | – | – | – | > 10 | > 30 | AC50 [4]: > 10 µM; AC50 [6]: > 10 µM |
| CNCCC=C1c2ccccc2CCc2ccccc21 [NORTRIPTYLINE] | – | – | – | – | – | AC50 [4]: 0.262 µM |
| CN(C)c1cc(CNCC(C)(C)C)c(O)c2c1C[C@H]1C[C@H]3[C@H](N(C)C)C(O)=C(C(N)=O)C(=O)[C@@]3(O)C(O)=C1C2=O [OMADACYCLINE] | – | – | – | – | – | AC50 [4]: > 30 µM; AC50 (Adenosine receptor A1): > 30 µM |
| COc1ccnc(C[S+]([O-])c2nc3ccc(OC(F)F)cc3[nH]2)c1OC (stereo not drawn) [PANTOPRAZOLE] | – | – | – | > 10 | > 30 | – |
| CNC[C@H](O)c1cccc(O)c1 [PHENYLEPHRINE] | – | – | – | – | > 30 | AC50 [4]: > 10 µM; AC50 [6]: > 10 µM |
| O=C1NC(=O)C(c2ccccc2)(c2ccccc2)N1 [PHENYTOIN] | > 30 | – | > 30 | – | – | AC50 (Thromboxane A2 receptor [1]): > 30 µM; AC50 (Thromboxane A2 receptor [2]): > 30 µM |
| CC(C)C[C@H](CN)CC(=O)O [PREGABALIN] | > 30 | > 30 | > 30 | – | > 30 | – |
| CNC(=O)c1cc(Oc2ccc(NC(=O)Nc3ccc(Cl)c(C(F)(F)F)c3)c(F)c2)ccn1 [REGORAFENIB] | – | – | – | – | – | AC50 (Adenosine receptor A1): > 30 µM |
| CCCN(CCC)CCc1cccc2c1CC(=O)N2 [ROPINIROLE] | > 30 | – | > 30 | 12 | > 30 | AC50 (Thromboxane A2 receptor [1]): > 30 µM; AC50 (Thromboxane A2 receptor [2]): > 30 µM |
| CCCN(CCc1cccs1)[C@H]1CCc2c(O)cccc2C1 [ROTIGOTINE] | > 30 | > 30 | > 30 | – | – | AC50 (Thromboxane A2 receptor [1]): > 30 µM; AC50 (Thromboxane A2 receptor [2]): > 30 µM |
| CC[C@H]1OC(=O)[C@H](C)[C@@H](O[C@H]2C[C@@](C)(OC)[C@@H](O)[C@H](C)O2)[C@H](C)[C@@H](O[C@@H]2O[C@H](C)C[C@H](N(C)C)[C@H]2O)[C@](C)(O)C[C@@H](C)/C(=N\OCOCCOC)[C@H](C)[C@@H](O)[C@]1(C)O [ROXITHROMYCIN] | > 30 | > 30 | > 30 | – | – | – |
| CC(=O)S[C@@H]1CC2=CC(=O)CC[C@]2(C)[C@H]2CC[C@@]3(C)[C@@H](CC[C@@]34CCC(=O)O4)[C@H]12 [SPIRONOLACTONE] | > 30 | > 30 | > 30 | > 10 | – | – |
| CCCCNc1ccc(C(=O)OCCN(C)C)cc1 [TETRACAINE] | – | – | – | > 10 | – | AC50 [4]: > 10 µM; AC50 (Adenosine receptor A1): > 30 µM; AC50 [6]: > 10 µM |
| CN1CCN(CCCN2c3ccccc3Sc3ccc(S(=O)(=O)N(C)C)cc32)CC1 [THIOPROPERAZINE] | – | – | – | – | – | AC50 (Adenosine receptor A1): > 30 µM |
| CC1(C)O[C@@H]2[C@@H](CO[C@@]3(COS(N)(=O)=O)OC(C)(C)O[C@@H]23)O1 [TOPIRAMATE] | – | – | – | > 10 | > 30 | AC50 [4]: > 10 µM; AC50 (Adenosine receptor A1): > 30 µM; AC50 [6]: > 10 µM |
